Measured values taken from PMC12298648, “An Evaluation of the Cytotoxicity and Safety Profile of Usnic Acid for a Broad Panel of Human Cancers and Normal Cells with Respect to Its Enantiospecificity” (Molecules, 2025).
In brackets after ≈: the same amount, converted by molar mass. Read-outs that look alike come from different tables or passages of the source.

What was measured:
HCT116 = test: MTT viability assay, HCT116 colon cancer cells; type: cell-based, human; conditions: for Cell viability: HCT116, 24 h; for IC50: Homo sapiens, HCT-116
Source text: (§1) Cell lines of different origins were used in the study and grouped as follows: prostate panel (human prostate carcinomas: DU145, derived from metastatic site: brain; grade IV PC3, derived from metastatic site: bone; LNCaP, derived from the metastatic site: lymph node; prostate epithelial, PNT2), colon panel (colorectal adenocarcinomas: HT29, originating from a primary tumor; Duke’s type C DLD-1, with the potential to lymph node metastasis; highly metastatic HCT116; colon epithelial cells CCD 841 CoN), thyroid panel (follicular thyroid carcinoma FTC133, anaplastic thyroid carcinoma 8505C, papillary thyroid carcinoma TPC-1, normal thyroid follicular epithelial Nthy-ori 3–1), breast panel (ER-positive breast adenocarcinoma MCF7, ER-negative breast adenocarcinoma MDA-MB-231, breast epithelial MCF10A), brain panel (neuroblastoma SH-SY5Y, glioblastoma U-87 MG, murine astrocytes C8D1A). All cell lines were purchased from Merck (Darmstadt, Germany).
(§2) Cells were grown under standard conditions (37 °C, 5% CO2) and culture media (DMEM/F12 for PNT2, PC3, FTC133, 8505 C, MDA-MB-231, TPC-1; DMEM Low Glucose for DU145; DMEM High Glucose for HCT116, DLD-1, SH-SY5Y, U87MG, C8D1A; MEM with NEAA for MCF7; MEM for CCD 841 CoN; McCoy’s for HT29; RPMI1640 with sodium pyruvate for LNCaP; DMEM/F12 with 20 ng/mL epidermal growth factor (EGF), 10 μg/mL insulin, 0.5 μg/mL hydrocortisone, 100 ng/mL cholera toxin) for MCF10A), supplemented with 10% fetal bovine serum (FBS) or 5% donor horse serum for MCF10A, and 1% antibiotics solution (10,000 U penicillin and 10 mg streptomycin/mL). The tested substances were prepared as 10 mg/mL stock solutions in DMSO and further diluted in the culture media to the working concentrations. Cells were treated with UA enantiomers at the concentration range of 0–50 µg/mL. The influence of DMSO on cell viability was also examined, with the final concentration […], and no toxic effect was noted.
(§3) The cells were seeded onto 96-well plates at a density of 1.5 × 10^4 cells/well. After 24 h UA enantiomers were added. Cell viability was determined after 24, 48, and 72 h by the MTT assay, as described previously. Doxorubicin was used as a reference cytostatic drug. All analyses were performed in triplicate; cell viability was expressed as % of control, untreated cells (mean ± SD), and IC50 values (concentration at which cell viability is inhibited by 50%), if possible.

HT29 = test: MTT viability assay, HT29 colon cancer cells; type: cell-based, human; conditions: for Cell viability: HT29, 24 h; for IC50: Homo sapiens, HT-29
Source text: as §1, §2, §3

CCD 841 CoN = test: MTT viability assay, normal colon epithelial cells; type: cell-based, human; conditions: for Cell viability: CCD 841 CoN, 24 h; for IC50: Homo sapiens, CCD-841CoN
Source text: as §1, §2, §3

DU145 = test: MTT viability assay, DU145 prostate cancer cells; type: cell-based, human; conditions: for Cell viability: DU145, 24 h; for IC50: Homo sapiens, DU-145
Source text: as §1, §2, §3
(§4) The selectivity index (SI) was calculated, if possible, by dividing the IC50 value obtained for non-cancerous cells line by the IC50 values obtained for appropriate cancer cell line, as described previously. […] The values above 3 indicate good selectivity.

PC3 = test: MTT viability assay, PC3 prostate cancer cells; type: cell-based, human; conditions: for IC50: Homo sapiens, PC-3; for Cell viability: PC3, 24 h
Source text: as §1, §2, §3, §4

PNT2 = test: MTT viability assay, normal prostate epithelial cells; type: cell-based, human; conditions: for IC50: Homo sapiens; for Cell viability: PNT2, 24 h
Source text: as §1, §2, §3

Nthy ori 3-1 = test: MTT viability assay, normal thyroid follicular epithelial cells; type: cell-based, human; conditions: for IC50: Homo sapiens; for Cell viability: Nthy ori 3-1, 24 h
Source text: as §1, §2, §3

MCF7 = test: MTT viability assay, MCF7 breast cancer cells; type: cell-based, human; conditions: for IC50: Homo sapiens; for Cell viability: MCF7, 24 h
Source text: as §1, §2, §3, §4

U87MG = test: MTT viability assay, glioblastoma U87MG cells; type: cell-based, human; conditions: 24 h
Source text: as §1, §2, §3

MCF7 cells = test system: MCF7 cells; set-up: method as in not printed ('another' study); conditions: MCF7, 72 h, ref not given ('another' study), cited from earlier work

CC(=O)C1=C(O)C=C2Oc3c(C(C)=O)c(O)c(C)c(O)c3[C@@]2(C)C1=O [UA(+), (+)-usnic acid]
Cell viability (HCT116; 2.5 µg/mL): 100.35 % of control
Cell viability (HCT116; 5 µg/mL): 103.97 % of control
Cell viability (HCT116; 10 µg/mL): 85.60 % of control
Cell viability (HCT116; 20 µg/mL): 71.99 % of control
Cell viability (HCT116; 30 µg/mL): 68.16 % of control
Cell viability (HCT116; 40 µg/mL): 67.02 % of control
Cell viability (HCT116; 50 µg/mL): 61.49 % of control
IC50 (HCT116; HCT116, 48 h): 26.4 µg/mL (≈ 76.7 µM)
IC50 (HCT116; HCT116, 72 h): 10.5 µg/mL (≈ 30.5 µM)
Cell viability (HT29; 2.5 µg/mL): 103.23 % of control
Cell viability (HT29; 5 µg/mL): 91.51 % of control
Cell viability (HT29; 10 µg/mL): 88.42 % of control
Cell viability (HT29; 20 µg/mL): 84.70 % of control
Cell viability (HT29; 30 µg/mL): 77.54 % of control
Cell viability (HT29; 40 µg/mL): 74.11 % of control
Cell viability (HT29; 50 µg/mL): 72.56 % of control
IC50 (HT29; HT29, 48 h): > 50 µg/mL
IC50 (HT29; HT29, 72 h): > 50 µg/mL
Cell viability (CCD 841 CoN; 2.5 µg/mL): 104.22 % of control
Cell viability (CCD 841 CoN; 5 µg/mL): 103.61 % of control
Cell viability (CCD 841 CoN; 10 µg/mL): 99.72 % of control
Cell viability (CCD 841 CoN; 20 µg/mL): 111.77 % of control
Cell viability (CCD 841 CoN; 30 µg/mL): 101.26 % of control
Cell viability (CCD 841 CoN; 40 µg/mL): 95.35 % of control
Cell viability (CCD 841 CoN; 50 µg/mL): 96.52 % of control
IC50 (CCD 841 CoN; 48 h): > 50 µg/mL
IC50 (CCD 841 CoN; 72 h): > 50 µg/mL
Cell viability (DU145; 2.5 µg/mL): 102.26 % of control
Cell viability (DU145; 5 µg/mL): 94.38 % of control
Cell viability (DU145; 10 µg/mL): 86.92 % of control
Cell viability (DU145; 20 µg/mL): 87.54 % of control
Cell viability (DU145; 30 µg/mL): 72.41 % of control
Cell viability (DU145; 40 µg/mL): 68.15 % of control
Cell viability (DU145; 50 µg/mL): 67.13 % of control
IC50 (DU145; DU145, 48 h): 11.5 µg/mL (≈ 33.4 µM)
IC50 (DU145; DU145, 72 h): 12.1 µg/mL (≈ 35.1 µM)
selectivity index (SI) (DU145; IC50 PNT2 / IC50 DU145, 48 h): 3.25
selectivity index (SI) (DU145; IC50 PNT2 / IC50 DU145, 48 h, listed as (+)-UA): exceeding 3
selectivity index (SI) (DU145; IC50 PNT2 / IC50 DU145, 72 h): 1.68
IC50 (PC3; PC3, 48 h): 39.6 µg/mL (≈ 115 µM)
IC50 (PC3; PC3, 72 h): 19.1 µg/mL (≈ 55.5 µM)
selectivity index (SI) (PC3; IC50 PNT2 / IC50 PC3, 48 h): 0.94
selectivity index (SI) (PC3; IC50 PNT2 / IC50 PC3, 72 h): 1.07
Cell viability (PC3; 2.5 µg/mL): 100.80 % of control
Cell viability (PC3; 5 µg/mL): 99.30 % of control
Cell viability (PC3; 10 µg/mL): 104.63 % of control
Cell viability (PC3; 20 µg/mL): 96.62 % of control
Cell viability (PC3; 30 µg/mL): 83.08 % of control
Cell viability (PC3; 40 µg/mL): 70.10 % of control
Cell viability (PC3; 50 µg/mL): 64.83 % of control
IC50 (PNT2; PNT2, 48 h): 37.4 µg/mL (≈ 109 µM)
IC50 (PNT2; PNT2, 72 h): 20.4 µg/mL (≈ 59.2 µM)
Cell viability (PNT2; 5 µg/mL): 101.11 % of control
Cell viability (PNT2; 10 µg/mL): 104.00 % of control
Cell viability (PNT2; 20 µg/mL): 96.96 % of control
Cell viability (PNT2; 30 µg/mL): 68.67 % of control
Cell viability (PNT2; 40 µg/mL): 59.70 % of control
Cell viability (PNT2; 50 µg/mL): 56.52 % of control
IC50 (Nthy ori 3-1; Nthy-ori 3-1, 48 h): > 50 µg/mL
IC50 (Nthy ori 3-1; Nthy-ori 3-1, 72 h): 33.2 µg/mL (≈ 96.4 µM)
Cell viability (Nthy ori 3-1; 2.5 µg/mL): 97.57 % of control
Cell viability (Nthy ori 3-1; 5 µg/mL): 100.56 % of control
Cell viability (Nthy ori 3-1; 10 µg/mL): 95.69 % of control
Cell viability (Nthy ori 3-1; 20 µg/mL): 93.96 % of control
Cell viability (Nthy ori 3-1; 30 µg/mL): 94.51 % of control
Cell viability (Nthy ori 3-1; 40 µg/mL): 97.29 % of control
Cell viability (Nthy ori 3-1; 50 µg/mL): 97.71 % of control
IC50 (MCF7; MCF7, 48 h): > 50 µg/mL
IC50 (MCF7; MCF7, 72 h): > 50 µg/mL
Cell viability (MCF7; 2.5 µg/mL): 106.54 % of control
Cell viability (MCF7; 5 µg/mL): 108.77 % of control
Cell viability (MCF7; 10 µg/mL): 108.15 % of control
Cell viability (MCF7; 20 µg/mL): 103.95 % of control
Cell viability (MCF7; 30 µg/mL): 89.38 % of control
Cell viability (MCF7; 40 µg/mL): 87.41 % of control
Cell viability (MCF7; 50 µg/mL): 87.78 % of control
selectivity index (SI) (MCF7; MCF7 cells, 72 h): ~3
Cell viability (U87MG; 5 µg/mL): 99.21 % of control
Cell viability (U87MG; 10 µg/mL): 98.61 % of control
Cell viability (U87MG; 30 µg/mL): 101.76 % of control
Cell viability (U87MG; 40 µg/mL): 92.73 % of control
Cell viability (U87MG; 50 µg/mL): 95.00 % of control
IC50 (MCF7 cells; recalculated from µM by the authors): 36.3 µg/mL
IC50 (MCF7 cells; read-out: IC50): 105 µM
